{"source": "paper PMC10987949", "about": "“Inhibition of HIV-1 release by ADAM metalloproteinase inhibitors” (Frontiers in Microbiology, 2024)", "key": {"TNFα release": {"system": "TNFα release", "assay": "TNFα release ELISA, stimulated CD4 T cells", "assay_type": "cell-based, human", "details": "PHA or anti-CD3 stimulated CD4 T cells", "protocol": "PBMC from de-identified healthy donors were obtained with informed consent from the Department of Transfusion Medicine, National Institutes of Health under Biological reagent Registry RD-14-IX-12 approved by NIH biological safety board. CD8-depleted PBMCs, either stimulated or non-stimulated with 10 μg/mL phytohaemagglutinin (PHA) or anti-CD3 antibody (with or without conjugated beads), were plated at 2×10^6 cells/ml in 48 well plates in RPMI 1640 + 10%FBS (R10) to a final volume of 1 mL in each well. IL-2 was added at a final concentration of 20 U/mL. CD3 antibody okt3 was used at ~0.2 μg/mL final concentration. Compounds were prepared in appropriate solvents according to the manufacturer’s instructions, diluted to working concentrations using RPMI 1640 + 10%FBS (R10), and added to the cell cultures for 6–24 h for CD62L shedding, and 48 h for TNF-α release. Supernatants were collected and assessed using either the CD62L or TNF-α Duo Set ELISA kit according to manufacturer’s instructions (R&D Systems, Inc.). The viability of cells treated with compounds was assessed by acridine orange / propidiom iodide (AO/PI Logosbio catalog F23001) staining using Luna-FL cell counter following the manufacture’s instruction.^2"}, "ADAM9, 10 and 17 mRNA": {"system": "ADAM9, 10 and 17 mRNA", "assay": "RT-PCR of ADAM9, 10 and 17 mRNA in HIV-1BAL infected PBMC", "assay_type": "cell-based, human", "details": "day 3 and 6 of infected samples", "protocol": "RT-PCR using ADAM9, 10 and 17 primer probes was assayed using TaqMan primer/probe sets from ThermoFisher with a 50 ng cDNA template as described previously ([Chun et al., 2013]; [Kononchik et al., 2018]). The following TaqMan 20X Gene Expression Assay probes (Dye: FAM-MGB) were used: ADAM9 (Hs00177638_m1), ADAM10 (Hs00153853_m1), ADAM17 (Hs01041915_m1). Expression Assay standard probes (Dye: VIC-MGB) for β-Actin (Hs01060665_g1) or RNase P/RPPH1 (4403328) were used as gene expression controls. Briefly, HIV infected or uninfected cells from triplicate experiments were washed 3x in PBS and lysed for RNA isolation using RNeasy mini kit (QIAGEN corp). The corresponding cDNA samples were prepared using either TaqMan microRNA reverse transcription kit or Invitrogen High-Capacity cDNA reverse transcription kit (Thermo Fisher). Samples were run in duplicate across triplicate experiments on an ABI 7300 Real-Time PCR System (Applied Biosystems) with a threshold of 0.2. Relative gene expression was calculated using the 2^-ΔCt method and normalized to β-Actin or RNaseP as the endogenous controls. All statistical analyses were carried out using the software Prism 8 (GraphPad Software, Inc). Western blot analyses were used to detect the mature active form of ADAMs ([Pereira Vatanabe et al., 2021]). […]"}}}
{"smiles": "CNC(=O)[C@H](Cc1ccccc1)NC(=O)[C@H](CC(C)C)[C@H](CSc1cccs1)C(=O)NO", "note": "[BB-94, Batimastat]", "values": [{"measurement": "effect on TNFα release", "setting": "TNFα release", "value": "inhibited"}, {"measurement": "HIV-1BAL induced increase of ADAM9, 10, 17 mRNA", "setting": "ADAM9, 10 and 17 mRNA", "value": "increase was not observed"}]}
